The source of these data is ChEMBL document CHEMBL1158246, “New cytotoxic briaran diterpenes from the Formosan gorgonian Briareum sp” (1996).

Converted amounts (≈) assume the structure as drawn. Some results are limits rather than exact numbers.

What all share (assay type): functional
Common to all, as to conditions: read-out: ED50 (the source's name)

The subject of one experiment is HT-29. Kind of experiment: Cytotoxicity against human HT29 cells.
A further experiment has as its system KB. As to the kind of experiment: Cytotoxicity against human KB cells.
Another experiment has as its system A549. As to the kind of experiment: Cytotoxicity against human A549 cells.
Another experiment concerns P388. As to the kind of experiment: Cytotoxicity against mouse P388 cells.

`CC(=O)O[C@H]1C[C@@H]2O[C@]2(C)[C@@H]2[C@@H](O)[C@]34O[C@]3(C)C(=O)O[C@H]4/C=C(/C)CC[C@@H](OC(C)=O)[C@@]12C`: the EC50 is 6.96 µg/mL (≈ 15 µM) in the experiment with HT-29, above 50 µg/mL with KB, above 50 µg/mL in the experiment with A549 and 0.61 µg/mL (≈ 1.31 µM) with P388.

For `CC(=O)O[C@H]1CC=C(C)[C@@H]2[C@@H](OC(C)=O)[C@]34O[C@]3(C)C(=O)O[C@H]4/C=C(/C)CC[C@@H](OC(C)=O)[C@@]12C` [BRIAREOLIDE H], the EC50 in the experiment with HT-29 was 0.29 µg/mL (≈ 0.591 µM); in the experiment with KB, above 50 µg/mL; in the experiment on A549, above 50 µg/mL; in the experiment on P388 it was 3.1 µg/mL (≈ 6.32 µM).

In the case of `CC(=O)O[C@H]1C[C@@H]2O[C@]2(C)[C@@H]2[C@@H](OC(C)=O)[C@]34O[C@]3(C)C(=O)O[C@H]4/C=C(/C)CC[C@@H](OC(C)=O)[C@@]12C`, the EC50 turned out to be 10.1 µg/mL (≈ 19.9 µM) in the experiment on HT-29, 24.4 µg/mL (≈ 48.3 µM) with KB, 17.4 µg/mL (≈ 34.3 µM) with A549 and 1.59 µg/mL (≈ 3.14 µM) with P388.

On to `CC(=O)O[C@H]1CC=C(C)[C@@H]2[C@@H](O)[C@]34O[C@]3(C)C(=O)O[C@H]4/C=C(/C)CC[C@@H](OC(C)=O)[C@@]12C`, for which the EC50 worked out at 8.27 µg/mL (≈ 18.4 µM) with HT-29, 0.27 µg/mL (≈ 0.602 µM) in the experiment with KB, 10.3 µg/mL (≈ 23.1 µM) in the experiment with A549 and 0.28 µg/mL (≈ 0.624 µM) with P388.
